Like-named read-outs stand apart in the source and are kept apart here.
What was measured:
Format in all cases: binding
[1] = target: T1, CIB1 and αIIb interaction (GST-CIB1 : F-αIIb peptide) (Homo sapiens, UniProt Q99828); assay: FP assay, 384-well format (screen); design: 384-well SCREEN Efficacy (%): concentration or dose not given beside the values; conditions: for 384-well SCREEN Efficacy (%) / 384-well SCREEN Confirm? / IC50: F-αIIb peptide; for 384-well SCREEN Confirm?: YES/NO; for IC50: read-out: 384-well SCREEN IC50; for Confirm and Selective?: selective toward αIIb: negative curve class and/or IC50 ratio of >3-fold and/or >2-fold efficacy vs scrambled peptide
T1 construct: made in house; host or cells: BL-21 plus RIL cells (E. coli)
T1 sequence (Q99828 1-191): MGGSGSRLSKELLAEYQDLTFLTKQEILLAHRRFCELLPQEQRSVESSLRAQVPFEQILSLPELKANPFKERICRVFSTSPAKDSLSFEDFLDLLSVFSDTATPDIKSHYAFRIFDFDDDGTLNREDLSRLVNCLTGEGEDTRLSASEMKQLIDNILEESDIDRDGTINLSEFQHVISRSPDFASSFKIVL

[2] = target: T2, GST-CIB1 : F-scrambled peptide (Homo sapiens, UniProt Q99828); assay: FP scrambled-peptide counter screen, 1536-well format; conditions: for COUNTERSCREEN Confirm?: YES/NO call
T2 construct: made in house; host or cells: BL-21 plus RIL cells (E. coli)
T2 sequence (Q99828 1-191): T1 sequence (Q99828 1-191)

[3] = target: T3, CIB1 and αIIb interaction (CIB1-GST : F-αIIb peptide) (Homo sapiens, UniProt Q99828); assay: FP assay, 1536-well qHTS format (primary and confirmatory screen); conditions: for CONFIRMATORY SCREEN Confirm?: YES/NO call; for CONFIRMATORY SCREEN Efficacy (%) / Efficacy (%): negative = inhibition
T3 construct: made in house; host or cells: BL-21 plus RIL cells (E. coli)
T3 sequence (Q99828 1-191): T1 sequence (Q99828 1-191)

[4] = target: T2, GST-CIB1 : F-scrambled peptide; assay: FP scrambled-peptide counter screen, 384-well format; conditions: F-scrambled peptide; for 384-well COUNTERSCREEN Confirm?: *: Curve in opposite direction; for IC50: read-out: 384-well COUNTERSCREEN IC50
[5] = scrambled-peptide counterscreen
[6] = scrambled-peptide counterscreen, qHTS curve class
[7] = confirmatory screen, qHTS curve class, negative sign = inhibitory curve
[8] = qHTS FP screen hits, Table S2, one class per curve where COUNT > 1, negative sign = inhibitory curve
[9] = scrambled-peptide counterscreen, read-out: COUNTERSCREEN IC50
[10] = confirmatory screen, read-out: CONFIRMATORY SCREEN IC50
[11] = qHTS primary screen hits, Table S2
[12] = qHTS primary screen hits, Table S2, negative sign = inhibitory curve
[13] = qHTS primary screen hits, Table S2, read-out: IC50
[14] = qHTS FP screen hits, Table S2, read-out: IC50

| Compound | 384-well SCREEN Efficacy (%) [1] | 384-well SCREEN Confirm? [1] | IC50 [1] | COUNTERSCREEN Efficacy (%) [2, 5] | COUNTERSCREEN Confirm? [2, 5] | COUNTERSCREEN Curve Class [2, 6] | CONFIRMATORY SCREEN Confirm? ([3]; confirmatory screen) | CONFIRMATORY SCREEN Curve Class [3, 7] | CONFIRMATORY SCREEN Efficacy (%) ([3]; confirmatory screen) | Efficacy (%) ([3]; qHTS FP screen hits, Table S2) | Curve Class [3, 8] | 384-well COUNTERSCREEN Efficacy (%) [4] | IC50 [2, 9] | IC50 [3, 10] | 384-well COUNTERSCREEN Confirm? [4] | IC50 [4] | Efficacy (%) [3, 11] | IC50 [3, 13] | IC50 [3, 14] | also measured |
| --- | --- | --- | --- | --- | --- | --- | --- | --- | --- | --- | --- | --- | --- | --- | --- | --- | --- | --- | --- | --- |
| CC[C@@H](CO)NC(=O)[C@@H]1C=C2c3cccc4[nH]cc(c34)C[C@H]2N(C)C1.O=C(O)/C=C\C(=O)O [NCGC00017258-05] | 80% | YES | 60 µM | -16% | YES | 4 | YES | -2.4 | -34% | -131% | -2.1 | 80% | – | – | – | – | – | – | – | – |
| Cc1c(C)n(Cc2ccc(-c3ccccc3C(=O)O)cc2)c2ccc(C(=O)N[C@@H](C)c3ccc([N+](=O)[O-])cc3)cc12 [NCGC00347955-04] | 56% | YES | 12.6 µM | 95% | YES | 3 | YES | -1.2 | -52% | – | – | 32% | 89.1 µM | 22.4 µM | YES | > 120 µM | – | – | – | – |
| O=C(O)C(F)(F)F.OCc1ccc(-c2ccc3ncnc(NCc4nccs4)c3c2)o1 [NCGC00238383-01] | 69% | YES | 25.1 µM | -16% | YES | 4 | YES | -3 | -52% | – | – | 47% | – | 70.8 µM | – | 39.8 µM | -70% | 39.8 µM | – | Curve Class [3, 12]: -2.2 |
| Cc1cc2c(C(C)C)c(O)c(O)c(C=O)c2c(O)c1-c1c(C)cc2c(C(C)C)c(O)c(O)c(C=O)c2c1O [NCGC00261532-01] | 90% | YES | 2.7 µM | – | – | – | – | – | – | – | – | 60% | – | – | YES | 33 µM | – | – | – | Efficacy (%) (counterscreen) ([2]; counterscreen): -63%; Curve Class (counterscreen) ([2]; counterscreen, qHTS curve class, negative sign = inhibitory curve): -1.2; IC50 ([2]; counterscreen, read-out: IC50 [μM] (counterscreen)): 7.1 µM; Efficacy (%) (confirmatory screen) ([3]; confirmatory screen): -70%; Confirm? (confirmatory screen) ([3]; confirmatory screen, YES/NO): YES; Curve Class (confirmatory screen) [3, 7]: -1.4; IC50 ([3]; confirmatory screen, read-out: IC50 [μM] (confirmatory screen)): 2.8 µM |
| O=C(O)C(F)(F)F.O=S(=O)(Nc1nc2n(n1)C(c1ccccc1)C=C(c1ccc(Cl)cc1)N2)c1ccccc1 (stereo not shown) [NCGC00100537-04] | 85% | YES | 50.1 µM | 10% | YES | 4 | YES | -2.2 | -81% | -125% | -1.1 | 80% | – | 39.8 µM | – | 50.1 µM | – | – | 22.4 µM | – |
| O=C(Nc1nc(-c2ccccc2)cs1)c1ccncc1NS(=O)(=O)c1ccccc1Cl.O=C(O)C(F)(F)F [NCGC00344943-01] | 32% | YES | 15.8 µM | 25% | YES | 4 | YES | -1.1 | -98% | – | – | 31% | – | – | YES | > 120 µM | – | – | – | – |
| Nc1c(Cc2ccc(S(N)(=O)=O)cc2)c(-c2cccc(-c3ccccc3)c2)nn1-c1nc(C(=O)O)cs1.O=C(O)C(F)(F)F [NCGC00356752-02] | 49% | YES | 14.1 µM | 0% | YES | 4 | YES | -2.2 | -78% | -54% | -2.2 | 34% | – | 39.8 µM | Inconclusive | 1.6 µM | – | – | 28.2 µM | Confirm and Selective? [1]: Inconclusive |
| COc1ccc2c(c1)C=C1Cn3c-2c(C2CCCCC2)c2ccc(cc23)C(=O)NS(=O)(=O)N(C)CCOCCN(C)C1=O [NCGC00482982-02] | 35% | YES | 30.1 µM | 101% | YES | – | YES | -2.2 | -52% | -35% | -2.2 | 25% | 70.8 µM | 39.8 µM | YES* | > 120 µM | – | – | 56.2 µM | – |
| Br.CCCCCCCCCCCCCCCC[N+](C)(C)C.[Br-] [NCGC00164283-07] | 57% | YES | 15.8 µM | 0% | YES | 4 | YES | -2.1 | -114% | -75% | -2.2 | 44% | – | 70.8 µM | YES | 2.5 µM | – | – | 79.4 µM | – |
| O=Cc1c(-c2ccccc2)no[n+]1[O-] [NCGC00168371-01] | 73% | YES | 14.1 µM | -14% | YES | 4 | YES | -1.2 | -69% | – | – | 51% | – | 22.4 µM | Inconclusive | 17.7 µM | -73% | 50.1 µM | – | Confirm and Selective? [1]: Inconclusive; Curve Class [3, 12]: -2.2 |
| CCc1nnc(NS(=O)(=O)c2ccc(NC(=S)NC(=O)/C=C/c3ccc(F)cc3)cc2)s1 [NCGC00351476-01] | 30% | YES | 4.5 µM | 57% | YES | 3 | YES | -1.2 | -36% | -29% | -1.2 | -30% | 70.8 µM | 8.9 µM | – | 5 µM | – | – | 7.9 µM | – |
| Cc1ccc(Cl)cc1NC(=O)c1nc[nH]c1C(=O)Nc1nc2ccccc2[nH]1 [NCGC00244259-01] | 48% | YES | 11.2 µM | -15% | YES | 4 | YES | -1.2 | -28% | – | – | 48% | – | 7.9 µM | – | 15.8 µM | -42% | 20 µM | – | Curve Class ([3]; qHTS primary screen hits, Table S2, negative sign = inhibitory curve, several classes where COUNT > 1): -2.2 |
| Cc1cc(Nc2c(Nc3nnc(-c4ccncc4)s3)c(=O)c2=O)ccc1Cl.O=C(O)C(F)(F)F [NCGC00241510-01] | 23% | – | > 120 µM | -33% | YES | -2.2 | YES | -1.4 | -51% | – | – | 64% | 44.7 µM | 11.2 µM | – | > 120 µM | -35% | 39.8 µM | – | Curve Class [3, 12]: -2.4 |
